# Assay results: patent US20250339551A1, “AN ANTIBODY-DRUG CONJUGATE HAVING TWO OR MORE DIFFERENT FUNCTIONAL SMALL MOLECULES FOR ENHANCED TREATMENT OF REFRACTORY DISEASES” (HANGZHOU SEEHE BIOTECHNOLOGY CO., LTD, priority 2023, published 2025)
# Legend:
# C4-2B cell line = type: cell-based; details: 120 hours incubation, MTT, n = DAR given with each label
# Excerpt: The cell lines used in the cytotoxicity assays were: C4-2B Cells which was obtained from ATCC through license agreement with MD Anderson Cancer Center, Houston, TX, USA. 22RV1, A549, U87, NCI-N87, MKN-7, BxPC-3, JIMT-1, MDA-MB-231, SU86.86, SW1990, OVCAR-3, Calu-3, A431, AsPC-1, CFPAC-1, DMS53, HCC827 and NCI-H1975 cells were purchased from ATCC, Nanjing Cobioer and The Cell Bank of Shanghai Institute of Biochemistry and Cell Biology, and the others. C4-2B and PC-3-4H7 are both Steap1 and PSMA antigen high express cells, but medium expressed of both B7H3 and DLL3 antigens. 22RV1 is low express cells for Steap1, PSMA, B7H3 and DLL3 antigens. U87 is glioblastoma (GBM) cells, NCI-N87 and MKN-7 cell line are stable models of the gastric epithelium. A431 is human epidermoid carcinoma. JIM-1 is trastuzumab-resistant Her2 breast tumor cells. SU86.86, SW1990, CFPAC-1 and AsPC-1 are pancreatic cancer cell lines. OVCAR-3 is ovarian cancer cell lines. Calu-3, HCC827 and NCI-H1975 are a human lung adenocarcinoma. All these cells were grown according to the provider manuals. To run the assay, the cells (180 μl, 6000 cells) were added to each well in a 96-well plate and incubated for 24 hours at 37° C. with 5% CO2. Next, the cells were treated with test compounds (20 μl) at various concentrations in appropriate cell culture medium (total volume, 0.2 mL). The control wells contain cells and the medium but lack the test compounds. The plates were incubated for 120 hours at 37° C. with 5% CO2. MTT (5 mg/mL) was then added to the wells (20 μl) and the plates were incubated for 1.5 hr at 37° C. The medium was carefully removed and DMSO (180 μl) was added afterward. After it was shaken for 15 min, the absorbance was measured at 490 nm and 570 nm with a reference filter of 620 nm. The inhibition % was calculated according to the following equation: […]
# [1] = test system: GUCY2C-9C9 colon cancer cells; assay: in vivo activity of anti GUCY2C ADCs (FIG. 15); details: anti GUCY2C antibody drug conjugates, DAR=4.0˜4.2, one time administration, 3.0 mg/Kg, over 20 days, compared with anti GUCY2C antibody-GGFG-Dxd
# C4-2B cells = assay: affinities against C4-2B cells (FIG. 7); type: binding; details: C4-2B cells highly express both Steap1 and PSMA antigens
# PC-3-4B9 cells = assay: affinities against PC-3-4B9 cells (FIG. 8); type: binding; details: PC-3-4B9 only express highly PSMA antigens
# PC-3 cells = assay: affinities against nature PC-3 cells (FIG. 10); type: binding; details: PC-3 cells do not have either Steap1 or PSMA antigens
# PC-3-4G5 cells = assay: affinities against PC-3-4G5 cells (FIG. 9); type: binding; details: PC-3-4G5 only express highly Steap1 antigens
# Excerpt: Since PC-3-4G5 only express highly Steap1 antigens, thus both prepared vandortuzumab and the vandortuzumab-C002 had the good affinity for PC-3-4G5 cells.
molecule,measurement,setting,value
CCc1c2c(nc3cc(F)c(NC(=O)CNC(=O)[C@H](C)NC(=O)[C@@H](NC(=O)[C@H](CCC(=O)NCCOCCOCCNC(=O)c4ccc(C(=O)NCCCCC(=O)NCCCC[C@H](NC(=O)N[C@@H](CCC(=O)O)C(=O)O)C(=O)O)cc4)NC(=O)CCCN4C(=O)CC(S)C4=O)C(C)C)cc13)-c1cc3c(c(=O)n1C2)COC(=O)[C@]3(O)CC (stereo partly drawn) [C040],IC50,C4-2B cell line,4.27 nM
CC[C@@]1(O)C(=O)OCc2c1cc1n(c2=O)Cc2c-1nc1cc(F)c(C)c3c1c2[C@@H](NC(=O)OCC[N+](C)(C)Cc1ccc(NC(=O)[C@H](C)NC(=O)[C@@H](NC(=O)[C@H](CCC(=O)NCCOCCOCCNC(=O)c2ccc(C(=O)NCCCCC(=O)NCCCC[C@H](NC(=O)N[C@@H](CCC(=O)O)C(=O)O)C(=O)O)cc2)NC(=O)CCCN2C(=O)CC(S)C2=O)C(C)C)cc1)CC3 (stereo partly drawn) [C044],IC50,C4-2B cell line,7.87 nM
CC[C@@]1(O)C(=O)OCc2c1cc1n(c2=O)Cc2c-1nc1cc(F)c(C)c3c1c2[C@@H](NC(=O)OCC[N+](C)(C)Cc1ccc(NC(=O)[C@H](C)NC(=O)[C@@H](NC(=O)[C@H](CCC(=O)N(CCNC(=O)CCOCCOCCNC(=O)c2ccc(C(=O)NCCCCC(=O)NCCCC[C@H](NC(=O)N[C@@H](CCC(=O)O)C(=O)O)C(=O)O)cc2)CCNC(=O)CCOCCOCCNC(=O)c2ccc(C(=O)NCCCCC(=O)NCCCC[C@H](NC(=O)N[C@@H](CCC(=O)O)C(=O)O)C(=O)O)cc2)NC(=O)CCCN2C(=O)CC(S)C2=O)C(C)C)cc1)CC3 (stereo partly drawn) [C045],IC50,C4-2B cell line,6.76 nM
CC[C@@]1(O)C(=O)OCc2c1cc1n(c2=O)Cc2c-1nc1cc(F)c(C)c3c1c2[C@@H](NC(=O)[C@H](C)NC(=O)[C@@H](NC(=O)[C@H](CCC(=O)NCCOCCOCCNC(=O)c1ccc(C(=O)NCCCCC(=O)NCCCC[C@H](NC(=O)N[C@@H](CCC(=O)O)C(=O)O)C(=O)O)cc1)NC(=O)C1CCN(C(=O)CS)CC1)C(C)C)CC3 [C060],IC50,C4-2B cell line,7.57 nM
CC[C@@]1(O)C(=O)OCc2c1cc1n(c2=O)Cc2c-1nc1cc(F)c(C)c3c1c2[C@@H](NC(=O)OCc1ccc(NC(=O)[C@H](C)NC(=O)[C@@H](NC(=O)[C@H](CCC(=O)N[C@H](C(=O)N[C@@H](C)C(=O)NC(=O)[C@H](CCC(=O)NC(c2ccccc2)(c2ccccc2)c2ccccc2)NC(=O)[C@@H]2CCCN2C(=O)[C@@H]2CCCN2C(=O)[C@H](CCCNC(=N)NC(c2ccccc2)(c2ccccc2)c2ccccc2)NC(=O)[C@H](CCCNC(=N)NC(c2ccccc2)(c2ccccc2)c2ccccc2)NC(=O)[C@H](CCCNC(=N)NC(c2ccccc2)(c2ccccc2)c2ccccc2)NC(=O)[C@H](CCC(=O)NC(c2ccccc2)(c2ccccc2)c2ccccc2)NC(=O)[C@H](CCCNC(=N)NC(c2ccccc2)(c2ccccc2)c2ccccc2)NC(=O)[C@H](CCCNC(=N)NC(c2ccccc2)(c2ccccc2)c2ccccc2)NC(=O)[C@H](CCCCNC(=O)OC(C)(C)C)NC(=O)[C@H](CCCCNC(=O)OC(C)(C)C)NC(=O)[C@H](CCCNC(=N)NC(c2ccccc2)(c2ccccc2)c2ccccc2)NC(=O)CNC(=O)OCC2c4ccccc4-c4ccccc42)C(C)C)NC(=O)CCCNC(=O)[C@H](CCCCNC(=O)COCCOCCOCCOCCOCCOCCOCCOCCOCCOC)NC(=O)CCCN2C(=O)C=CC2=O)C(C)C)cc1C(=O)NCCOCCOCCOCCOCCOCCOCCOCCOC)CC3 [compound 570],in vivo antitumor activity over time,[1],better antitumor activity than the regular GGFG-Dxd conjugate
"vandortuzumab-C002 (conjugate, chains of the INN, looked up, drug conjugate C002) VH: EVQLVESGGGLVQPGGSLRLSCAVSGYSITSDYAWNWVRQAPGKGLEWVGYISNSGSTSYNPSLKSRFTISRDTSKNTLYLQMNSLRAEDTAVYYCARERNYDYDDYYYAMDYWGQGTLVTVSS VL: DIQMTQSPSSLSASVGDRVTITCKSSQSLLYRSNQKNYLAWYQQKPGKAPKLLIYWASTRESGVPSRFSGSGSGTDFTLTISSLQPEDFATYYCQQYYNYPRTFGQGTKVEIK",affinity against C4-2B cells,C4-2B cells,better affinity for the C4-2B cells than the naked (unconjugated) antibodies
same,affinity against PC-3-4B9 cells,PC-3-4B9 cells,had the affinity
same,affinity against nature PC-3 cells,PC-3 cells,not able to show the affinity at all
same,affinity against PC-3-4G5 cells,PC-3-4G5 cells,good affinity
